Data set [1] can be described thus: Lung S9 metabolism. The data set is classed as in vitro ADME, human. Conditions: for Compound Remaining at 60 min (%) / microsomal CLint at 1 µM: human lung S9, 1 μM compound, 1 mg/mL S9 protein; for Sulfate Appearance: human lung S9, qualitative O-sulfate metabolite peak; for microsomal CLint at 1 µM: human lung S9 fraction, pH 7.4, NADPH and PAPS, read-out: Clearance. The method, then:
The time 0, 15, 30, and 60 minute samples were analyzed for parent compound by high resolution LC-MS/MS. Lung S9 fractions from human (lot 1410245) were purchased from XenoTech LLC (Lenexa, Kans.). NADPH (Sigma Aldrich, N1630) and 3-phosphoadenosine 5-phosphosulfate (PAPS) (Sigma Aldrich, A1651) were purchased from Sigma Aldrich (St. Louis, Mo.). Acetonitrile and water were obtained from VWR (Radnor, Pa.) and were of HPLC grade or better. Raloxifene and formic acid was purchased from Sigma Aldrich (St. Louis, Mo.). Lung S9 incubations were performed in a water bath at 37° C. in a 96-well polypropylene plate. […] Louis, Mo.), 3 mM magnesium chloride (Sigma Aldrich, M1028) and in the presence of 100 μM PAPS (Sigma-Aldrich, St. […] Incubation volumes consisted of 400 μL and time points were taken at 0, 15, 30, and 60 minutes by the removal of a 70 μL aliquot and dilution into 140 μL acetonitrile (0% formic acid). All samples were centrifuged at 2250 g for 10 minutes at 5° C. Supernatant […] was taken from the centrifuged samples and diluted into 100 μL HPLC water containing internal standard. The samples were run on a Dionex Ultimate 3000 Auto sampler and analyzed using a Thermo Q-Exactive High Resolution Mass Spectrometer (Thermo, Waltham, Mass.) in Full Scan mode in conjunction with an Atlantis T3 column 3 μM-2.1×50 mm (Waters Inc., 186003717). Mobile Phase A consisted of Water+0.2% formic acid and Mobile Phase B consisted of acetonitrile +0.2% formic acid. Peak integration was accomplished using Gubbs GMSU software (Gubbs Inc., Alpharetta, Ga.). For each sample, peak area ratios were calculated by dividing the analyte peak area by the internal standard peak area. For each incubation, the peak area ratios of the analytes in each t0 was set to 100%, and the peak areas ratios from the 60 minute samples were converted to percentages remaining relative to the corresponding t0. Determination of sulfate metabolite formation was made qualitatively by observation of early-eluting peak in the parent ion channel which, based on historical internal data, corresponded to the O-sulfate metabolite of each parent compound.

The target in data set [2] is JAK1 (Homo sapiens (Human), UniProt P23458). Briefly: Biochemical JAK kinase assay (LanthaScreen), JAK1. Conditions: read-out: JAK1 pKi (converted). The method, then:
(§1) Recombinant GST-tagged JAK enzymes and a GFP-tagged STAT1 peptide substrate were obtained from Life Technologies. Serially diluted compounds were pre-incubated with each of the four JAK enzymes and the substrate in white 384-well microplates (Corning) at ambient temperature for 1 h. ATP was subsequently added to initiate the kinase reactions in 10 μL total volume, with 1% DMSO. […] Kinase reactions were allowed to proceed for 1 hour at ambient temperature before a 10 μL preparation of EDTA (10 mM final concentration) and Tb-anti-pSTAT1 ([…]) antibody (Life Technologies, 2 nM final concentration) in TR-FRET dilution buffer (Life Technologies) was added. The plates were allowed to incubate at ambient temperature for 1 h before being read on the EnVision reader (Perkin Elmer). Emission ratio signals (520 nm/495 nm) were recorded and utilized to calculate the percent inhibition values based on DMSO and background controls. For dose-response analysis, percent inhibition data were plotted vs. compound concentrations, and IC50 values were determined from a 4-parameter robust fit model with the Prism software (GraphPad Software). Results were expressed as pIC50 (negative logarithm of IC50) and subsequently converted to pKi (negative logarithm of dissociation constant, Ki) using the Cheng-Prusoff equation.
On the technique in general: In TR-FRET formats the signal depends on donor and acceptor labels being close together.

Data set [3] has as its target Tyk2 (Homo sapiens (Human), UniProt P29597). Briefly: Biochemical JAK kinase assay (LanthaScreen), Tyk2. The procedure:
as §1

Data set [4] has as its target JAK2 (Homo sapiens (Human), UniProt O60674). Briefly: Biochemical JAK kinase assay (LanthaScreen), JAK2. The procedure:
as §1, with “equation. Test compounds having a lower Ki value or higher pKi value in the four JAK assays show greater inhibition of JAK activity.” for “equation.”

Data set [5] deals with IL-2 stimulated pSTAT5 in Tall-1 T cells. Briefly: Inhibition of IL-2 stimulated pSTAT5 in Tall-1 T cells. Type of data set: cell-based. Conditions: IL-2 stimulated pSTAT5, Tall-1 human T cell line; read-out: Tall-1 pIC50 (converted). The procedure: The potency of test compounds for inhibition of interleukin-2 (IL-2) stimulated STAT5 phosphorylation was measured in the Tall-1 human T cell line (DSMZ) using AlphaLisa. Because IL-2 signals through JAK1/3, this assay provides a measure of JAK1/3 cellular potency.
Phosphorylated STAT5 was measured via the AlphaLISA SureFire Ultra pSTAT5 (Tyr694/699) kit (PerkinElmer).
Human T cells from the Tall-1 cell line were cultured in a 37° C., 5% CO2 humidified incubator in RPMI (Life Technologies) supplemented with 15% Heat Inactivated Fetal Bovine Serum (FBS, Life Technologies), 2 mM Glutamax (Life Technologies), 25 mM HEPES (Life Technologies) and 1× Pen/Strep (Life Technologies). Compounds were serially diluted in DMSO and dispensed acoustically to empty wells. Assay media (phenol red-free DMEM (Life Technologies) supplemented with 10% FBS (ATCC)) was dispensed (4 μL/well) and plates shaken at 900 rpm for 10 mins. Cells were seeded at 45,000 cells/well in assay media (4 μL/well), and incubated at 37° C., 5% CO2 for 1 hour, followed by the addition of IL-2 (R&D Systems; final concentration 300 ng/mL) in pre-warmed assay media (4 μL) for 30 minutes. After cytokine stimulation, cells were lysed with 6 ul of 3× AlphaLisa Lysis Buffer (PerkinElmer) containing 1× PhosStop and Complete tablets (Roche). The lysate was shaken at 900 rpm for 10 minutes at room temperature (RT). Phosphorylated STAT5 was measured via the pSTAT5 AlphaLisa kit (PerkinElmer). Freshly prepared acceptor bead mixture was dispensed onto lysate (5 μL) under green filtered <100 lux light. Plates were shaken at 900 rpm for 2 mins, briefly spun down, and incubated for 2 hrs at RT in the dark. Donor beads were dispensed (5 μL) under green filtered <100 lux light. Plates were shaken at 900 rpm for 2 minutes, briefly spun down, and incubated overnight at RT in the dark. Luminescence was measured with excitation at 689 nm and emission at 570 nm using an EnVision plate reader (PerkinElmer) under green filtered <100 lux light.
To determine the inhibitory potency of test compounds in response to IL-2, the average emission intensity of beads bound to pSTAT5 was measured in a human T cell line. IC50 values were determined from analysis of the inhibition curves of signal intensity versus compound concentration. Data are expressed as pIC50 (negative decadic logarithm IC50) values (mean±standard deviation).

Structures are written as SMILES.

These results are taken from US10947229B2, “Dimethyl amino azetidine amides as JAK inhibitors” (THERAVANCE BIOPHARMA R&D IP, LLC, priority 2018, dated 2021).

JAK2, sequence (O60674 whole entry): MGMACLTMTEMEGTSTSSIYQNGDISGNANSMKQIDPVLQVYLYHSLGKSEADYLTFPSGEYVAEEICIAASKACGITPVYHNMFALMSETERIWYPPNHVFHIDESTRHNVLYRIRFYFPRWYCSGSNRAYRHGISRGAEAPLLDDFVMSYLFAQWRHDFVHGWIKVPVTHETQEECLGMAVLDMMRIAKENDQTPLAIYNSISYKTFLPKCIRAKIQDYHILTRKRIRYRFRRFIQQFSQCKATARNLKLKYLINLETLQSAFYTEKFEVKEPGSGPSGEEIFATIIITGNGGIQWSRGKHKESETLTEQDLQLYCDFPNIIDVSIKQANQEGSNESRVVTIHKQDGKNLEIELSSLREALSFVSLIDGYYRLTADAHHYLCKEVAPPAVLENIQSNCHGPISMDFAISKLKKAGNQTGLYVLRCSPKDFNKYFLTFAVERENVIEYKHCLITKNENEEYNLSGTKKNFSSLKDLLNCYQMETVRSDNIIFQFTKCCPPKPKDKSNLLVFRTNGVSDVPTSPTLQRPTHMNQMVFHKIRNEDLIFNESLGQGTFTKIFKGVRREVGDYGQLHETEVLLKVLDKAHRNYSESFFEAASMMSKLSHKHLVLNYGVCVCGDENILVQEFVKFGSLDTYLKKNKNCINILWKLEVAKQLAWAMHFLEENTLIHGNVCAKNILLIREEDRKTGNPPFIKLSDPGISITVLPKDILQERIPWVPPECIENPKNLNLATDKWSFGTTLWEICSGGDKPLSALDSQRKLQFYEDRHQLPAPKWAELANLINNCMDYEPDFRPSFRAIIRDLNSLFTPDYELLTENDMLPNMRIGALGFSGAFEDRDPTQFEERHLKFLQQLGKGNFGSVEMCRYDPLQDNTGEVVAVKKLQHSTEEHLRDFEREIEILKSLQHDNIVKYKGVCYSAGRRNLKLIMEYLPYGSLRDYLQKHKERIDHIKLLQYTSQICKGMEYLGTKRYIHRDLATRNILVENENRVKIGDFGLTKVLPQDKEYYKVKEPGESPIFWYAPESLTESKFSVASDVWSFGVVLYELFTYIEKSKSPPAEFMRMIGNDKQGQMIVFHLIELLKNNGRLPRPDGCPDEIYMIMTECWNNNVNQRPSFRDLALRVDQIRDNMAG
Tyk2, sequence (P29597 whole entry): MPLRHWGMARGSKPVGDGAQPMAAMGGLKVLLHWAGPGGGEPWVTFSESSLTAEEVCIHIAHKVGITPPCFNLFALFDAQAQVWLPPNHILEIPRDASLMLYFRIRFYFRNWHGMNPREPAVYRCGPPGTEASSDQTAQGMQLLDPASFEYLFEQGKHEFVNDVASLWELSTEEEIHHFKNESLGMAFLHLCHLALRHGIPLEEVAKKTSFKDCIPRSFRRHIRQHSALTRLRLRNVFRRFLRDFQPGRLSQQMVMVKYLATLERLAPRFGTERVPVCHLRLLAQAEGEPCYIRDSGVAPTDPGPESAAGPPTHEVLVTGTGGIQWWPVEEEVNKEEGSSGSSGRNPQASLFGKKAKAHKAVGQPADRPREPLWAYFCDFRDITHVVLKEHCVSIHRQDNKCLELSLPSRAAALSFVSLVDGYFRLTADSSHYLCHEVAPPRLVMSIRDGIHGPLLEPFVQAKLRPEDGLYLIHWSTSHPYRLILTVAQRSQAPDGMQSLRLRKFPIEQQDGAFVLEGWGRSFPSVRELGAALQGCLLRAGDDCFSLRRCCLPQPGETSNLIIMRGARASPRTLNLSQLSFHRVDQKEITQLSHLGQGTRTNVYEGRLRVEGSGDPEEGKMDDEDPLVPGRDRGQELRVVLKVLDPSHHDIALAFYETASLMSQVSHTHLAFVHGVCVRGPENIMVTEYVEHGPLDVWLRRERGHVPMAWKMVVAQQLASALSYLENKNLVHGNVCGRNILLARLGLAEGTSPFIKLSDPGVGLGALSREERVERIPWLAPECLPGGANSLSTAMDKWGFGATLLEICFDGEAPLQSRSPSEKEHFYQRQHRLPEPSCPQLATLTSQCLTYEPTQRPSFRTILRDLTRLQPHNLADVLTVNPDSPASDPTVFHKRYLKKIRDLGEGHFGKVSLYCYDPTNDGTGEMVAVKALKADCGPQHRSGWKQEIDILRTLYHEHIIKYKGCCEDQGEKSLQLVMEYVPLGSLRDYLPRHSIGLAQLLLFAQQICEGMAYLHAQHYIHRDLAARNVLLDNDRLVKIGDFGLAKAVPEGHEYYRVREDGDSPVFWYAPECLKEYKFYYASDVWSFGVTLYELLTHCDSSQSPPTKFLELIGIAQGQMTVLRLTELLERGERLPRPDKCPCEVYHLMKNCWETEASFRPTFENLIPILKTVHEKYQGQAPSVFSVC
JAK1, sequence (P23458 whole entry): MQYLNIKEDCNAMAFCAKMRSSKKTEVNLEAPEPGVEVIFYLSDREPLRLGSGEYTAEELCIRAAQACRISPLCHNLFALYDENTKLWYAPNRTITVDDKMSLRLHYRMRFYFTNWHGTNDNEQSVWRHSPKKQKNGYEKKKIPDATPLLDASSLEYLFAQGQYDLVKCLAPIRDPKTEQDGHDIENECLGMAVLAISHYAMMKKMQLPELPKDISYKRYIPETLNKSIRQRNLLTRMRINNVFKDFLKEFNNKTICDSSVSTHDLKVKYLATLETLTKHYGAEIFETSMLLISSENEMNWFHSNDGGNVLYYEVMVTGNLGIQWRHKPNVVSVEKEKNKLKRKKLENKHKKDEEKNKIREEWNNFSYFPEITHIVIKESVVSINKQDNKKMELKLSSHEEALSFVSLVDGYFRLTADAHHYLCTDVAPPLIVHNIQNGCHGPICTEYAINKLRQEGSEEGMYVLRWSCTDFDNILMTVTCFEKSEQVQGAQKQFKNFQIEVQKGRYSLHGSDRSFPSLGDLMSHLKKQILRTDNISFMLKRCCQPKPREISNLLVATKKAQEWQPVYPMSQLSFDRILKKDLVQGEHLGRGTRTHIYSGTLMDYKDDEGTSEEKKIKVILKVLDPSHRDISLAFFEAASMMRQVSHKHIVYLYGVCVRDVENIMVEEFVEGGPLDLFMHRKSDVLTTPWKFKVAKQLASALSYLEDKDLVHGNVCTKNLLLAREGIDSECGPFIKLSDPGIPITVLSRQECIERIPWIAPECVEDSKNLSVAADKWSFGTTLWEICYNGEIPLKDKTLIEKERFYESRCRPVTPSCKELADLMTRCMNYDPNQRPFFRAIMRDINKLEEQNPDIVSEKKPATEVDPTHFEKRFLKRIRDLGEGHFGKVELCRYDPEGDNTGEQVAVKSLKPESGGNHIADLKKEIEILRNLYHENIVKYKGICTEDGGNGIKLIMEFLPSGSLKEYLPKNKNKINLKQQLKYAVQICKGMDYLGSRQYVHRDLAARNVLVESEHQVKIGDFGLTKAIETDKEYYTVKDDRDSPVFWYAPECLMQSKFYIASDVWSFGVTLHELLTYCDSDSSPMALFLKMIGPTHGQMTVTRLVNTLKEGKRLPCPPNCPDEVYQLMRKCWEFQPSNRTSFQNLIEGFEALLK

On to `CCCN1Cc2[nH]c(-c3n[nH]c4cc(-c5ccc(O)cc5CC)ccc34)nc2C[C@H]1C(=O)N1CC(N(C)C)C1` [Compound 5, (S)-(3-(dimethylamino)azetidin-1-yl)(2-(6-(2-ethyl-4-hydroxyphenyl)-1H-indazol-3-yl)-5-propyl-4,5,6,7-tetrahydro-3H-imidazo[4,5-c]pyridin-6-yl)methanone], for which, in data set [1], the “Compound Remaining at 60 min (%)” value amounted to 96%, the “Sulfate Appearance” value was “Yes” and the microsomal CLint at 1 µM amounted to 1.6 µL/min/mg. Further, the Ki in data set [2] is 0.0316 nM.

Consider `CCc1cc(O)c(F)cc1-c1ccc2c(-c3nc4c([nH]3)CN(C(C)C)[C@H](C(=O)N3CC(N(C)C)C3)C4)n[nH]c2c1` [Compound C-1, (S)-(3-(dimethylamino)azetidin-1-yl)(2-(6-(2-ethyl-5-fluoro-4-hydroxyphenyl)-1H-indazol-3-yl)-5-isopropyl-4,5,6,7-tetrahydro-3H-imidazo[4,5-c]pyridin-6-yl)methanone], for which, in data set [1], the “Compound Remaining at 60 min (%)” value is on record as 6%, the “Sulfate Appearance” value was “Yes” and the microsomal CLint at 1 µM worked out at 49 µL/min/mg.

For `CCc1cc(O)c(F)cc1-c1ccc2c(-c3nc4c([nH]3)CN(CC)[C@H](C(=O)N3CC(C)(N(C)C)C3)C4)n[nH]c2c1` [Compound C-3, (S)-(3-(dimethylamino)-3-methylazetidin-1-yl)(5-ethyl-2-(6-(2-ethyl-5-fluoro-4-hydroxyphenyl)-1H-indazol-3-yl)-4,5,6,7-tetrahydro-3H-imidazo[4,5-c]pyridin-6-yl)methanone], the “Tyk2 pKi” value in data set [3] is 9.4. Moreover, the “JAK2 pKi” value in data set [4] was found to be 10.9. Besides, in data set [1], the “Compound Remaining at 60 min (%)” value stood at 5%, the “Sulfate Appearance” value is listed as “Yes” and the microsomal CLint at 1 µM was found to be 50.6 µL/min/mg. Moreover, the IC50 in data set [5] was 2 nM.

Take `CCc1cc(O)ccc1-c1ccc2c(-c3nc4c([nH]3)CN(C(C)C)[C@H](C(=O)N3CC(C)(N(C)C)C3)C4)n[nH]c2c1` [Compound 4, (S)-(3-(dimethylamino)-3-methylazetidin-1-yl)(2-(6-(2-ethyl-4-hydroxyphenyl)-1H-indazol-3-yl)-5-isopropyl-4,5,6,7-tetrahydro-3H-imidazo[4,5-c]pyridin-6-yl)methanone]: in data set [1], the “Compound Remaining at 60 min (%)” value is given as 100% and the “Sulfate Appearance” value is reported as “Yes”.

With `CCc1cc(O)ccc1-c1ccc2c(-c3nc4c([nH]3)CN(CC)[C@H](C(=O)N3CC(N(C)C)C3)C4)n[nH]c2c1` [Compound 2, (S)-(3-(dimethylamino)azetidin-1-yl)(5-ethyl-2-(6-(2-ethyl-4-hydroxyphenyl)-1H-indazol-3-yl)-4,5,6,7-tetrahydro-3H-imidazo[4,5-c]pyridin-6-yl)methanone], in data set [1], the “Compound Remaining at 60 min (%)” value is reported as 98%, the “Sulfate Appearance” value is “Yes” and the microsomal CLint at 1 µM was 0.6 µL/min/mg.

Regarding `CCc1cc(O)ccc1-c1ccc2c(-c3nc4c([nH]3)CN(CC)[C@H](C(=O)N3CC(C)(N(C)C)C3)C4)n[nH]c2c1` [Compound 3, (S)-(3-(dimethylamino)-3-methylazetidin-1-yl)(5-ethyl-2-(6-(2-ethyl-4-hydroxyphenyl)-1H-indazol-3-yl)-4,5,6,7-tetrahydro-3H-imidazo[4,5-c]pyridin-6-yl)methanone], in data set [1], the “Compound Remaining at 60 min (%)” value is 97%, the “Sulfate Appearance” value is recorded as “Yes” and the microsomal CLint at 1 µM was 0.8 µL/min/mg.

`CCCN1Cc2[nH]c(-c3n[nH]c4cc(-c5cc(F)c(O)cc5CC)ccc34)nc2C[C@H]1C(=O)N1CC(C)(N(C)C)C1` [Compound C-6, (S)-(3-(dimethylamino)-3-methylazetidin-1-yl)(2-(6-(2-ethyl-5-fluoro-4-hydroxyphenyl)-1H-indazol-3-yl)-5-propyl-4,5,6,7-tetrahydro-3H-imidazo[4,5-c]pyridin-6-yl)methanone]: in data set [4], the “JAK2 pKi” value worked out at 10.7. Moreover, in data set [1], the “Compound Remaining at 60 min (%)” value is listed as 4%, the “Sulfate Appearance” value is “Yes” and the microsomal CLint at 1 µM stood at 53.5 µL/min/mg. Moreover, in data set [5], the IC50 was 2.51 nM.

For `CCCN1Cc2[nH]c(-c3n[nH]c4cc(-c5ccc(O)cc5CC)ccc34)nc2C[C@H]1C(=O)N1CC(C)(N(C)C)C1` [Compound 6, (S)-(3-(dimethylamino)-3-methylazetidin-1-yl)(2-(6-(2-ethyl-4-hydroxyphenyl)-1H-indazol-3-yl)-5-propyl-4,5,6,7-tetrahydro-3H-imidazo[4,5-c]pyridin-6-yl)methanone], the Ki in data set [4] (read-out: JAK2 pKi (converted)) is 0.0316 nM. Further, in data set [1], the “Compound Remaining at 60 min (%)” value turned out to be 90%, the “Sulfate Appearance” value is “Yes” and the microsomal CLint at 1 µM is 1.8 µL/min/mg.
